Laboratory results as given in BigSolDB 2.1.

CC(C)CCC[C@@H](C)[C@H]1CC[C@H]2[C@@H]3CC=C4C[C@@H](O)CC[C@]4(C)[C@H]3CC[C@]12C
solubility (mole fraction)
Conditions | in MIBK | in acetic acid | in anisole | in ethyl acetate | in methanol | in n-heptane
283.2 K | 0.0101 | 0.00053 | 0.0176 | 0.00593 | 0.00021 | 0.00198
293.2 K | 0.0142 | 0.0012 | 0.0205 | 0.00952 | 0.00042 | 0.00372
303.2 K | 0.0272 | 0.00143 | 0.024 | 0.0146 | 0.00073 | 0.00609
313.2 K | 0.036 | 0.00255 | 0.0325 | 0.0209 | 0.00105 | 0.00863
323.2 K | 0.0483 | 0.00382 | 0.0442 | 0.033 | 0.00127 | 0.0152
